{
  "source": "patent US6011041A",
  "about": "“Use of anhydrovinblastine” (priority 1996, dated 2000)",
  "key": {"[1]": {"conditions": "cited from earlier work; for dose limiting toxicity: humans"}, "[2]": {"system": "MCF7 human breast carcinoma", "test": "MTT dose response cytotoxicity, MCF7 (Table 1)", "assay_type": "cell-based", "conditions": "read-out: DRUG IC50", "description": "(§1) Cytotoxicity experiments on AHVB were performed as direct comparisons with vincristine and navelbine in order to assess its inherent antineoplastic profile against a variety of tumour cell types relative to other relevant vinca alkaloids. The cytotoxicity of AHVB was investigated in vitro against a panel of tumour cell lines of varying lineage in order to determine the specificity of its antitumour activity with respect to cell type. The tumour lines studied were P388 lymphocytic leukemia (a murine lymphocytic leukemia), Noble (Nb) rat U17 lymphoma, MCF7 human breast carcinoma, H460 human non-small cell lung carcinoma, K562 human erythrokeukemia and LS180 human colon carcinoma based on established NCI in vitro new anticancer drug cytotoxicity screening protocols.\n(§2) Standard dose response cytotoxicity assays (R. Mosmass, J. Immunol. Meth., 65:55-64, 1983) were utilized to determine the IC50 (drug concentration required to induce 50% inhibition of tumour cell growth) for vincristine, navelbine and AHVB. The indicated cell lines were obtained from either the ATCC or NCI tumor repository and were cultured in tissue culture media by standard techniques well known to those skilled in the art, prior to dilution to a defined cell concentration required for the studies in 96 well plates.\n(§3) A wide range of drug concentrations were exposed to tumour cells growing at log phase in 96-well microtitre plates. Cell concentrations depended on the cell line as well as the length of time to be cultured. Typically, P388 cells were plated at a concentration of 30,000, 2,000 and 750 cells per well for studies lasting 1, 3 and 7 days, respectively MCF7 cells were plated at a concentration of 7,000 and 1,500 cells per well for studies lasting 3 and 7 days, respectively. H460 cells were plated at a concentration of 2,500 and 1,000 cells per well for studies lasting 3 and 7 days, respectively. K562 cells were plated at a concentration of 1,500 and 10,000 cells per well for studies lasting 1 and 3 days, respectively. LS180 cells were plated at a concentration of 5,000 and […] cells per well for studies lasting 3 and 7 days, respectively. After plating all cell lines were incubated (CO2 incubator at 37° C., 5% CO2) for 24 hours prior to addition of the cytotoxic agent (See Table 1). Subsequently the plates were incubated for the indicated time period. At specified times, cells were washed and subsequently exposed to the dye inclusion marker MTT (3-(4,5-dimethylthiazol-2-yl)-2,5diphenyl tetrazolium), which accumulated into viable cells. MTT was added to the cells at a final concentration of 50 μg per well. After a 4 hour incubation, the cells were washed free of media and unreacted MTT, prior to addition of DMSO which was required to solubilize the insoluble formazan precipitate that formed in viable cells. After the sample was mixed through repeated pipetting, the colored product was measured using a plate reader operating at 570 nm. The absorbance values obtained for cells cultured in the absence of drug was assumed to represent 100% viability. Experiments were repeated to substantiate any differences noted between […] and other vinca alkaloids."}, "healthy male Nb rats": {"system": "healthy male Nb rats", "test": "acute (14 day) single dose toxicity in healthy male Nb rats (Table 2)", "assay_type": "in vivo, rat", "conditions": "single i.p. injection", "description": "(§4) Range-finding acute (14 day), single dose toxicity studies were performed in healthy male Nb rats in order to determine the maximum tolerated dose of vincristine sulfate, navelbine and AHVB when administered as a single, intraperitoneal injection in these rodents (see Table 2). To this end, healthy non-tumor bearing male Nb rats (weight range 333-399 grams) were divided in groups of 3 animals. Each group was used to test one drug at one dosage. The volumes within which the drugs were administered depended on the concentration of the drug solution (in saline) and the weight of the animals, and ranged from 0.1-1.0 ml. Saline was used as a control. The highest dose of each drug which allowed survival of all animals in a group (3 out of 3) was taken as the subacutely toxic dosage for the drug, i.e. 0.7 mg/kg for vincristine, 2.0 mg/kg for navelbine and 3.0 mg/kg for AHVB.\n(§5) The health of the animals was assessed by daily weight measurements in addition to behavioral indications of stress. Animals continued to be monitored throughout the complete 14 day study period. Animals were euthanized in the event of signs of severe stress or weight loss in excess of 20%. All animals were necropsied at the end of the study period or at the time of premature euthanasia."}, "[3]": {"test": "acute (14 day) single dose toxicity in healthy male Nb rats (Table 2)", "assay_type": "in vivo, rat", "conditions": "rat, in vivo, ip; male Nb rats, single i.p. injection; read-out: subacutely toxic dosage (highest dose which allowed survival of all animals in a group, 3 out of 3)", "description": "as §4, §5"}, "[4]": {"system": "P388 murine leukemia cells", "test": "MTT dose response cytotoxicity, P388 (Table 1, FIG. 5)", "assay_type": "cell-based", "conditions": "Mus musculus, read-out: DRUG IC50", "description": "as §1, §2, §3\nA cytotoxicity curve was generated to estimate the IC50 of vincristine, navelbine and AHVB in the murine P388 cell line (see FIG. 5). In this study, P388 cells derived from an ascitic tumor grown in BDF1 were first separated from red cells employing Ficoll-Paque. Isolated while cells were washed twice then placed in serum containing tissue culture media (1×10^5 cells per ml of RPMI 1640 supplemented with L-glutamine, penicillin, streptomycin and 10% fetal bovine serum) and cultured for 2 hours. All non adherent cells were collected and that cell population was defined as P388 cells and used for cytotoxicity assays 24 hours later. Cytotoxicity assays were performed as described in the notes to Table 1. The drug concentrations used are indicated on the X-axis. […]"}, "[5]": {"system": "H460 human non-small cell lung carcinoma", "test": "MTT dose response cytotoxicity, H460 (Table 1)", "assay_type": "cell-based", "conditions": "read-out: DRUG IC50", "description": "as §1, §2, §3"}, "[6]": {"conditions": "72 h, MCF7, exposure time 3 days"}, "[7]": {"conditions": "168 h, MCF7, exposure time 7 days"}, "[8]": {"conditions": "24 h, P388, exposure time 1 day"}, "[9]": {"conditions": "72 h, P388, exposure time 3 days"}, "[10]": {"conditions": "168 h, P388, exposure time 7 days"}, "[11]": {"conditions": "NCI-H460, 72 h, H460, exposure time 3 days"}, "[12]": {"conditions": "NCI-H460, 168 h, H460, exposure time 7 days"}},
  "note": "Structures can show the parent of a compound that is named as a salt. Where two headings read alike, the source gives them in different places.",
  "data": [
    {"smiles": "CC[C@]1(O)C[C@H]2CN(CCc3c([nH]c4ccccc34)[C@@](C(=O)OC)(c3cc4c(cc3OC)N(C=O)[C@H]3[C@@](O)(C(=O)OC)[C@H](OC(C)=O)[C@]5(CC)C=CCN6CC[C@]43[C@@H]65)C2)C1", "note": "[vincristine, Sulfate of 22-oxovincaleukoblastine]", "values": [
      {"measurement": "dose limiting toxicity", "setting": "[1]", "result": "peripheral neuropathy (in the absence of hematological toxicity)"},
      {"measurement": "other adverse reactions reported", "setting": "[1]; i.v.", "result": "abdominal cramps, ataxia, foot drop, weight loss, optic atrophy with blindness, transient cortical blindness, fever, cranial nerve manifestations, parehesia and numbness of the digits, polyuria, dysuria, oral ulceration, headache, vomiting, diarrhea, and intestinal necrosis and/or perforation"},
      {"measurement": "intrathecal administration outcome", "setting": "[1]; intrathecal", "result": "uniformly fatal"},
      {"measurement": "adverse reactions that can occur with single weekly doses", "setting": "[1]; single weekly doses, i.v.", "result": "leukopenia, neuritic pain, constipation, and difficulty in walking"},
      {"measurement": "most common adverse reaction", "setting": "[1]; single weekly doses", "result": "hair loss"},
      {"measurement": "most troublesome adverse reactions", "setting": "[1]; single weekly doses", "result": "neuromuscular in origin"},
      {"measurement": "IC50", "setting": "[2]; [6]", "result": "> 2500", "unit": "nM"},
      {"measurement": "IC50", "setting": "[2]; [7]", "result": "2.6 ± 1.6", "unit": "nM"},
      {"measurement": "Mortality (surviving rats/injected rats)", "setting": "healthy male Nb rats; 0.5 mg/kg", "result": "3/3"},
      {"measurement": "Mortality (surviving rats/injected rats)", "setting": "healthy male Nb rats; 0.7 mg/kg", "result": "3/3"},
      {"measurement": "MTD at 336 h", "setting": "[3]", "result": 0.7, "unit": "mg/kg"},
      {"measurement": "IC50", "setting": "[4]; [8]", "result": "11 ± 3.6", "unit": "nM"},
      {"measurement": "IC50", "setting": "[4]; [9]", "result": "1 ± 0.3", "unit": "nM"},
      {"measurement": "IC50", "setting": "[4]; [10]", "result": 2, "unit": "nM"},
      {"measurement": "IC50", "setting": "[5]; [11]", "result": 3.5, "unit": "nM"},
      {"measurement": "IC50", "setting": "[5]; [12]", "result": 2.5, "unit": "nM"}
    ]},
    {"smiles": "CCC1=CC2CN(CCc3c([nH]c4ccccc34)C(C(=O)OC)(c3cc4c(cc3OC)N(C)C3C(O)(C(=O)OC)C(OC(C)=O)C5(CC)C=CCN6CCC43C65)C2)C1", "note": "(stereo not drawn) [AHVB, 3',4'-anhydrovinblastine]", "values": [
      {"measurement": "IC50", "setting": "[2]; MCF7, 72 h", "result": "> 2500", "unit": "nM"},
      {"measurement": "IC50", "setting": "[2]; MCF7, 168 h", "result": "31.3 ± 12.4", "unit": "nM"},
      {"measurement": "Mortality (surviving rats/injected rats)", "setting": "healthy male Nb rats; 3.0 mg/kg", "result": "3/3"},
      {"measurement": "Mortality (surviving rats/injected rats)", "setting": "healthy male Nb rats; 4.4 mg/kg", "result": "0/1"},
      {"measurement": "Mortality (surviving rats/injected rats)", "setting": "healthy male Nb rats; 10.0 mg/kg", "result": "0/3"},
      {"measurement": "MTD at 336 h", "setting": "[3]", "result": 3, "unit": "mg/kg"},
      {"measurement": "IC50", "setting": "[4]; P388, 24 h", "result": "140 ± 53", "unit": "nM"},
      {"measurement": "IC50", "setting": "[4]; P388, 72 h", "result": "15 ± 8.7", "unit": "nM"},
      {"measurement": "IC50", "setting": "[4]; P388, 168 h", "result": 20, "unit": "nM"},
      {"measurement": "IC50", "setting": "[5]; NCI-H460, 72 h", "result": 10, "unit": "nM"},
      {"measurement": "IC50", "setting": "[5]; NCI-H460, 168 h", "result": 5, "unit": "nM"}
    ]},
    {"smiles": "CCC1=C[C@@H]2CN(C1)Cc1c([nH]c3ccccc13)[C@@](C(=O)OC)(c1cc3c(cc1OC)N(C)[C@H]1[C@@](O)(C(=O)OC)[C@H](OC(C)=O)[C@]4(CC)C=CCN5CC[C@]31[C@@H]54)C2", "note": "[navelbine, 3',4'-didehydro-4'-deoxy-C'-norvincaleukoblastine-di-L-tartrate]", "values": [
      {"measurement": "dose limiting toxicity", "setting": "[1]", "result": "hematological toxicities and not neurological side effects"},
      {"measurement": "local side effects", "setting": "[1]; intravenous", "result": "phlebitia or extravasion injury as it is a moderate vasicant"},
      {"measurement": "incidence of constipation, vomiting, diarrhea, anorexia, and stomatitis", "setting": "[1]; patients, relative to nausea", "result": "slightly lesser fraction"},
      {"measurement": "incidence of mild to moderate nausea", "setting": "[1]; patients", "result": "roughly one-third"},
      {"measurement": "incidence of mild to moderate peripheral neuropathy (paresthesia and hypesthesia)", "setting": "[1]; single agent", "result": "10 % of patients"},
      {"measurement": "IC50", "setting": "[2]; [6]", "result": "> 2500", "unit": "nM"},
      {"measurement": "IC50", "setting": "[2]; [7]", "result": "2.6 ± 1.6", "unit": "nM"},
      {"measurement": "Mortality (surviving rats/injected rats)", "setting": "healthy male Nb rats; 2.0 mg/kg", "result": "3/3"},
      {"measurement": "Mortality (surviving rats/injected rats)", "setting": "healthy male Nb rats; 5.0 mg/kg", "result": "0/3"},
      {"measurement": "MTD at 336 h", "setting": "[3]", "result": 2, "unit": "mg/kg"},
      {"measurement": "IC50", "setting": "[4]; [8]", "result": "20 ± 10", "unit": "nM"},
      {"measurement": "IC50", "setting": "[4]; [9]", "result": "0.7 ± 0.3", "unit": "nM"},
      {"measurement": "IC50", "setting": "[4]; [10]", "result": 2.5, "unit": "nM"},
      {"measurement": "IC50", "setting": "[5]; [11]", "result": 0.3, "unit": "nM"},
      {"measurement": "IC50", "setting": "[5]; [12]", "result": "> 0.5", "unit": "nM"}
    ]}
  ]
}
